Results reported in PubChem BioAssay AID2060492 (Molecular Pharmacology Branch, DTP, NCI, 2025).

System: 695427-040-R-J1-PDC complex spheroids, viability percent T/C
Experiment: Anticancer human tumor 695427-040-R-J1-PDC patient-derived colon adenocarcinoma cell line growth inhibition [GQUAD]
Details: for IC50: curve of first compound; for viability, T/C: stronger effect = lower value
In short: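 Viability of tumor cells grown as complex spheroids with endothelial and stromal cells, exposed to drug combinations. Top concentration at or near clinical Cmax (else 10 microM), diluted in half-log increments.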

[1] = second compound 0.0316 µM, first compound 0.0316 µM
[2] = second compound 0.0316 µM, first compound 0.316 µM
[3] = second compound 0.1 µM, first compound 0.0316 µM
[4] = second compound 0.1 µM, first compound 0.316 µM
[5] = second compound 0.316 µM, first compound 0.0316 µM
[6] = second compound 0.316 µM, first compound 0.316 µM
[7] = second compound 1 µM, first compound 0.0316 µM
[8] = second compound 1 µM, first compound 0.316 µM
[9] = second compound 3.16 µM, first compound 0.0316 µM
[10] = second compound 3.16 µM, first compound 0.316 µM
[11] = second compound 10 µM, first compound 0.0316 µM
[12] = second compound 10 µM, first compound 0.316 µM
[13] = second compound 0.0316 µM, first compound 0.1 µM
[14] = second compound 0.0316 µM, first compound 1 µM
[15] = second compound 0.0316 µM, first compound 3.16 µM
[16] = second compound 0.0316 µM, first compound 10 µM
[17] = second compound 0.1 µM, first compound 0.1 µM
[18] = second compound 0.1 µM, first compound 1 µM
[19] = second compound 0.1 µM, first compound 3.16 µM
[20] = second compound 0.1 µM, first compound 10 µM
[21] = second compound 0.316 µM, first compound 0.1 µM
[22] = second compound 0.316 µM, first compound 1 µM
[23] = second compound 0.316 µM, first compound 3.16 µM
[24] = second compound 0.316 µM, first compound 10 µM
[25] = second compound 1 µM, first compound 0.1 µM
[26] = second compound 1 µM, first compound 1 µM
[27] = second compound 1 µM, first compound 3.16 µM
[28] = second compound 1 µM, first compound 10 µM
[29] = second compound 3.16 µM, first compound 0.1 µM
[30] = second compound 3.16 µM, first compound 1 µM
[31] = second compound 3.16 µM, first compound 3.16 µM
[32] = second compound 3.16 µM, first compound 10 µM
[33] = second compound 10 µM, first compound 0.1 µM
[34] = second compound 10 µM, first compound 1 µM
[35] = second compound 10 µM, first compound 3.16 µM
[36] = second compound 10 µM, first compound 10 µM
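Further: spheroids exposed to compounds for seven days before readout.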

SMILES: Cc1[nH]c2ccccc2c1CCNCc1ccc(/C=C/C(=O)NO)cc1 + CN(C)c1ccc(Nc2c3ccc(NC(=O)CCN4CCCC4)cc3nc3cc(NC(=O)CCN4CCCC4)ccc23)cc1
- IC50 (second compound 0.0316 µM): > 316 nM
- IC50 (second compound 0.1 µM): > 316 nM
- IC50 (second compound 0.316 µM): > 316 nM
- IC50 (second compound 1 µM): > 316 nM
- IC50 (second compound 3.16 µM): > 316 nM
- IC50 (second compound 10 µM): > 316 nM
- viability, T/C (second compound 0.0316 µM, first compound 0.000999 µM): 105%
- viability, T/C (second compound 0.0316 µM, first compound 0.00316 µM): 111%
- viability, T/C (second compound 0.0316 µM, first compound 0.00999 µM): 106%
- viability, T/C [1]: 101%
- viability, T/C (second compound 0.0316 µM, first compound 0.0999 µM): 106%
- viability, T/C [2]: 72.2%
- viability, T/C (second compound 0.1 µM, first compound 0.000999 µM): 119%
- viability, T/C (second compound 0.1 µM, first compound 0.00316 µM): 93.9%
- viability, T/C (second compound 0.1 µM, first compound 0.00999 µM): 112%
- viability, T/C [3]: 99.3%
- viability, T/C (second compound 0.1 µM, first compound 0.0999 µM): 97.3%
- viability, T/C [4]: 69.7%
- viability, T/C (second compound 0.316 µM, first compound 0.000999 µM): 98.2%
- viability, T/C (second compound 0.316 µM, first compound 0.00316 µM): 97.5%
- viability, T/C (second compound 0.316 µM, first compound 0.00999 µM): 95.2%
- viability, T/C [5]: 96.5%
- viability, T/C (second compound 0.316 µM, first compound 0.0999 µM): 105%
- viability, T/C [6]: 78.4%
- viability, T/C (second compound 1 µM, first compound 0.000999 µM): 97.8%
- viability, T/C (second compound 1 µM, first compound 0.00316 µM): 106%
- viability, T/C (second compound 1 µM, first compound 0.00999 µM): 98.8%
- viability, T/C [7]: 108%
- viability, T/C (second compound 1 µM, first compound 0.0999 µM): 98%
- viability, T/C [8]: 68%
- viability, T/C (second compound 3.16 µM, first compound 0.000999 µM): 93.4%
- viability, T/C (second compound 3.16 µM, first compound 0.00316 µM): 101%
- viability, T/C (second compound 3.16 µM, first compound 0.00999 µM): 101%
- viability, T/C [9]: 92.8%
- viability, T/C (second compound 3.16 µM, first compound 0.0999 µM): 86.8%
- viability, T/C [10]: 61.1%
- viability, T/C (second compound 10 µM, first compound 0.000999 µM): 87.5%
- viability, T/C (second compound 10 µM, first compound 0.00316 µM): 85.9%
- viability, T/C (second compound 10 µM, first compound 0.00999 µM): 94.7%
- viability, T/C [11]: 82.6%
- viability, T/C (second compound 10 µM, first compound 0.0999 µM): 91.1%
- viability, T/C [12]: 61.1%

SMILES: O=C(NO)c1cnc(N2CCN(S(=O)(=O)c3ccc4ccccc4c3)CC2)nc1 + CN(C)c1ccc(Nc2c3ccc(NC(=O)CCN4CCCC4)cc3nc3cc(NC(=O)CCN4CCCC4)ccc23)cc1
- IC50 (second compound 0.0316 µM): 429 nM
- IC50 (second compound 0.1 µM): 461 nM
- IC50 (second compound 0.316 µM): 431 nM
- IC50 (second compound 1 µM): 401 nM
- IC50 (second compound 3.16 µM): 447 nM
- IC50 (second compound 10 µM): 366 nM
- viability, T/C [1]: 98.9%
- viability, T/C [13]: 93.1%
- viability, T/C [2]: 66.5%
- viability, T/C [14]: 4.08%
- viability, T/C [15]: 0.2%
- viability, T/C [16]: 0.24%
- viability, T/C [3]: 107%
- viability, T/C [17]: 91.7%
- viability, T/C [4]: 72.4%
- viability, T/C [18]: 3.81%
- viability, T/C [19]: 0.24%
- viability, T/C [20]: 0.42%
- viability, T/C [5]: 100%
- viability, T/C [21]: 101%
- viability, T/C [6]: 67.1%
- viability, T/C [22]: 3.52%
- viability, T/C [23]: 0.21%
- viability, T/C [24]: 0.44%
- viability, T/C [7]: 97.1%
- viability, T/C [25]: 87.9%
- viability, T/C [8]: 62.3%
- viability, T/C [26]: 3.42%
- viability, T/C [27]: 0.2%
- viability, T/C [28]: 0.29%
- viability, T/C [9]: 90.7%
- viability, T/C [29]: 89.5%
- viability, T/C [10]: 70%
- viability, T/C [30]: 3.74%
- viability, T/C [31]: 0.28%
- viability, T/C [32]: 0.31%
- viability, T/C [11]: 84%
- viability, T/C [33]: 84.4%
- viability, T/C [12]: 56.8%
- viability, T/C [34]: 3.35%
- viability, T/C [35]: 0.35%
- viability, T/C [36]: 0.32%

SMILES: COc1ccc([C@@H](O)c2cc(-c3ncnc4cc(N5CCOCC5)ccc34)c(F)cc2Cl)nn1 + Cc1[nH]c2ccc(F)cc2c1-c1nc2c3cccnc3c3ncccc3c2[nH]1
- IC50 (second compound 0.0316 µM): 3620 nM
- IC50 (second compound 0.1 µM): > 10000 nM
- IC50 (second compound 0.316 µM): > 10000 nM
- IC50 (second compound 1 µM): 9520 nM
- IC50 (second compound 3.16 µM): 5460 nM
- IC50 (second compound 10 µM): 4230 nM
- viability, T/C [1]: 105%
- viability, T/C [13]: 82.6%
- viability, T/C [2]: 80.9%
- viability, T/C [14]: 50.7%
- viability, T/C [15]: 58.2%
- viability, T/C [16]: 40.8%
- viability, T/C [3]: 103%
- viability, T/C [17]: 81.3%
- viability, T/C [4]: 83.5%
- viability, T/C [18]: 56.6%
- viability, T/C [19]: 72.1%
- viability, T/C [20]: 46.7%
- viability, T/C [5]: 90.7%
- viability, T/C [21]: 89.8%
- viability, T/C [6]: 80.3%
- viability, T/C [22]: 72%
- viability, T/C [23]: 71.5%
- viability, T/C [24]: 51.2%
- viability, T/C [7]: 74.2%
- viability, T/C [25]: 78.5%
- viability, T/C [8]: 83.9%
- viability, T/C [26]: 68.9%
- viability, T/C [27]: 73.9%
- viability, T/C [28]: 48.9%
- viability, T/C [9]: 64.1%
- viability, T/C [29]: 85.6%
- viability, T/C [10]: 72.9%
- viability, T/C [30]: 58.1%
- viability, T/C [31]: 66.6%
- viability, T/C [32]: 36.4%
- viability, T/C [11]: 74%
- viability, T/C [33]: 65.4%
- viability, T/C [12]: 82.8%
- viability, T/C [34]: 60.6%
- viability, T/C [35]: 55.5%
- viability, T/C [36]: 38.7%
